From ChEMBL document CHEMBL1201862, “PubChem BioAssay data set” (2004) come the findings set out here.

Calls of active or inactive are those of the source. Unless noted, no cut-off for these calls is given here.

For test [1], the target named is T1, Tyrosine-protein phosphatase non-receptor type 22 (Homo sapiens, UniProt Q9Y2R2).
T1 sequence (Q9Y2R2 whole entry): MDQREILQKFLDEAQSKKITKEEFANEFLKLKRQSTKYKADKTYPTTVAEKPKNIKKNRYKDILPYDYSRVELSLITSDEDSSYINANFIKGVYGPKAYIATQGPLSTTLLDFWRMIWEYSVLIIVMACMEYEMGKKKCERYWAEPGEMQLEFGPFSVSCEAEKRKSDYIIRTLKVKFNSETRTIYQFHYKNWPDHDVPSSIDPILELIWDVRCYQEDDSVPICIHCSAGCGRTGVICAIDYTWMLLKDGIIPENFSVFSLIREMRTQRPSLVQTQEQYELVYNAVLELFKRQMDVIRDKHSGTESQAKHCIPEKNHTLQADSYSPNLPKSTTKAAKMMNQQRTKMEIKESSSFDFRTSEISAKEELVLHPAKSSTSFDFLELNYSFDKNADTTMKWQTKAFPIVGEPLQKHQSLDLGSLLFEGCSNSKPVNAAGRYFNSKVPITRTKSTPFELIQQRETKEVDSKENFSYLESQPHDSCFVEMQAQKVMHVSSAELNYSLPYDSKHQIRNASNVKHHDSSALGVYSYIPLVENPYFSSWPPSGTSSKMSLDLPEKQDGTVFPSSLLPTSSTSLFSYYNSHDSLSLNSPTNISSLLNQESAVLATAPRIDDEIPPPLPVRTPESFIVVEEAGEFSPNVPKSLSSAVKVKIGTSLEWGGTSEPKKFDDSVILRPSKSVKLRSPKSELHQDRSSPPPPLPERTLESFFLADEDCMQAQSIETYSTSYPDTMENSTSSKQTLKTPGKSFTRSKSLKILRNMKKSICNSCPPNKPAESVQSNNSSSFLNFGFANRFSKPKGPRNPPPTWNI
In words: PubChem AID 2135.

In test [2] the target is T2, Tyrosine-protein phosphatase non-receptor type 7 (Homo sapiens, UniProt P35236).
T2 sequence (P35236 whole entry): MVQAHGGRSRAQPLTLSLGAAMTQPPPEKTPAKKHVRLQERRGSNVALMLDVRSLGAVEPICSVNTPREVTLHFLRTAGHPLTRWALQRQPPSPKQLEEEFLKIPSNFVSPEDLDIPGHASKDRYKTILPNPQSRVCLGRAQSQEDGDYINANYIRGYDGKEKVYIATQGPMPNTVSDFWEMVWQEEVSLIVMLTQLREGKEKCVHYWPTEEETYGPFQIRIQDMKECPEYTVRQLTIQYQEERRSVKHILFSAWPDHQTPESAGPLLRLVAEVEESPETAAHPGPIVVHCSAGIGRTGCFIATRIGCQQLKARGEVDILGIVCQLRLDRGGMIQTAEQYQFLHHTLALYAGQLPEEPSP
In words: inhibition of hematopoietic tyrosine phosphatase HePTP – biochemical, set 2, SAR follow-up (AID 449736). The class given is functional.

The target of test [3] is T1, Tyrosine-protein phosphatase non-receptor type 22. As to the kind of experiment: inhibition of lymphoid tyrosine phosphatase LYP – biochemical, pCAP fluorogenic substrate, fluorescence, set 3, SAR follow-up (AID 449727). Type of test: functional.
The target is the same in test [4]. In words: SAR LYP1 Fluorescent Assay using OMFP substrate for In Vitro dose response studies - Set 2. [Related pubchem assays (depositor defined):AID1779, AID1784, AID2140, AID449726, AID488869]. Type of test: functional.
Test [5] shares this target. In words: SAR LYP1 Fluorescent Assay using pCAP substrate for In Vitro dose response studies - Set 2. [Related pubchem assays (depositor defined):AID1779, AID1784, AID2135, AID449727]. The class given is functional.
The target in test [6] is Tyrosine-protein phosphatase non-receptor type 12 (Homo sapiens, UniProt Q05209). As to the kind of experiment: SAR Selectivity Analysis of small molecule inhibitors of PEST using pCAP in a fluorescence assay. [Related pubchem assays (depositor defined):AID1779, AID1784, AID2135]. The class given is functional.
The target of test [7] is T1, Tyrosine-protein phosphatase non-receptor type 22. As to the kind of experiment: PubChem AID 2140.
Test [8] shares this target. As to the kind of experiment: SAR LYP1 Fluorescent Assay using OMFP substrate for In Vitro dose response studies - Set 3. [Related pubchem assays (depositor defined):AID1779, AID1784, AID2140, AID2686]. The class given is functional.
In test [9] the target is T3, Kappa-type opioid receptor (Homo sapiens, UniProt P41145). In words: SAR analysis of small molecule antagonists of the kappa opioid receptor via a luminescent beta-arrestin assay - Set 4. [Related pubchem assays (depositor defined):AID1777, AID1778, AID1785, AID1786, AID1966, AID2133, AID2136, AID2285]. Type of test: functional.
In test [10] the target is T3, Kappa-type opioid receptor. In words: SAR analysis of small molecule antagonists of the kappa opioid receptor via a luminescent beta-arrestin assay - Set 5. [Related pubchem assays (depositor defined):AID1778, AID1785]. The class given is functional.
Test [11] has as its target T4, Runt-related transcription factor 1/Core-binding factor subunit beta (Homo sapiens, UniProt Q01196+Q13951). As to the kind of experiment: Confirmation of compounds inhibiting the binding between the RUNX1 Runt domain and CBFb-SMMHC via a time resolved fluorescence resonance energy transfer (TR-FRET) assay. [Related pubchem assays (depositor defined):AID1434, AID1438, AID1496, AID1560, AID1645]. The class given is protein assay. For orientation: Time-resolved FRET reads energy transfer from a long-lived donor to a nearby acceptor.

In test [12] the target is T4, Runt-related transcription factor 1/Core-binding factor subunit beta. In words: Runt domain/CBFb-SMMHC interaction disruptors – biochemical, TR-FRET (AID 1438). Type of test: protein assay.
Test [13] addresses T5, Heat shock factor protein 1 (Mus musculus, UniProt P38532).
T5 sequence (P38532 whole entry): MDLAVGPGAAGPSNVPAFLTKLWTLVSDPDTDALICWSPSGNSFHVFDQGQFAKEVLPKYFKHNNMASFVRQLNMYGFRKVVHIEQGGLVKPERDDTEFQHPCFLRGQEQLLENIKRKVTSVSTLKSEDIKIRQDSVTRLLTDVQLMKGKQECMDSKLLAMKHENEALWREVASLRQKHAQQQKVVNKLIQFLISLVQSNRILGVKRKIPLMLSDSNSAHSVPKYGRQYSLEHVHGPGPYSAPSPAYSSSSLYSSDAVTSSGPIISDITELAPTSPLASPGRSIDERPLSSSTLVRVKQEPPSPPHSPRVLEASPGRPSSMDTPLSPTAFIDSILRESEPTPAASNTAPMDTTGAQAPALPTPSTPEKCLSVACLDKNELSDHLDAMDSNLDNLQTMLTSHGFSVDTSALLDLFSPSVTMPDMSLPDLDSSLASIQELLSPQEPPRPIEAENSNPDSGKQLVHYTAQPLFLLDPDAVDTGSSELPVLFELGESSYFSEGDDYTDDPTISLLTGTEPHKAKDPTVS
As to the kind of experiment: enhancement of HSF1-driven luciferase signal – cell-based, NIH3T3, luminescence, dose retest, confirmation (AID 435004).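 Note: stress induced by proteasome inhibitor MG132 added 30 min after compound; luciferase reporter driven by HSF1 response element in NIH3T3 cells; actives raise luminescence as potentiators of the MG132 stress response.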 Type of test: functional.

Test [14] addresses Heat shock protein HSP 90-alpha (Homo sapiens, UniProt P07900). The class given is functional, organism-based.
The target of test [15] is T4, Runt-related transcription factor 1/Core-binding factor subunit beta. In words: disruptors of Runt domain/CBFb-SMMHC interaction – biochemical, FRET, Cerulean-Runt, Venus-CBFb-SMMHC, uHTS, […] (AID 1434). Type of test: protein assay.
Another test concerns the target Genome polyprotein (dengue virus type 2, UniProt P29990). As to the kind of experiment: flavivirus cap methylation enzyme inhibition – biochemical, confirmation dose response, primary screen (AID 588689). Type of test: functional.
Test [16] has as its target T4, Runt-related transcription factor 1/Core-binding factor subunit beta. As to the kind of experiment: Confirmation of compounds inhibiting the binding between the RUNX1 Runt domain and CBFb-SMMHC via a fluorescence resonance energy transfer (FRET) assay. [Related pubchem assays (depositor defined):AID1434, AID1438, AID1496, AID1550, AID1645]. The class given is protein assay.

In test [17] the target is G-protein coupled receptor 55 (Homo sapiens, UniProt Q9Y2T6). As to the kind of experiment: selective activators of receptor GPR55 – imaging, U2OS cells, beta-arrestin-GFP redistribution, primary screen (AID 1961). Type of test: functional.
For test [18], the target named is Peroxisome proliferator-activated receptor gamma (Homo sapiens, UniProt P37231). As to the kind of experiment: PPARg transcriptional activation, reporter cells – cell-based, luminescence, assay provider, dose response (AID 504447). Type of test: functional.
Test [19] addresses Sphingosine 1-phosphate receptor 1 (Homo sapiens, UniProt P21453). As to the kind of experiment: Late-stage fluorescence-based dose-response cell-based assay to identify agonists of the Sphingosine 1-Phosphate Receptor 4 (S1P4): Sphingosine 1-Phosphate Receptor 1 (S1P1) counterscreen assay. [Related pubchem assays (depositor defined):AID1509, AID1523, AID1563, AID1686, AID1701, AID1801, AID463107, AID463225, AID504400]. The class given is functional. Background: A counterscreen serves to expose hits that act by an unwanted route or on another target.

Test [20] concerns the target Sphingosine 1-phosphate receptor 5 (Homo sapiens, UniProt Q9H228). In words: Late-stage fluorescence-based dose-response cell-based assay to identify agonists of the Sphingosine 1-Phosphate Receptor 4 (S1P4): Sphingosine 1-Phosphate Receptor 5 (S1P5) counterscreen assay. [Related pubchem assays (depositor defined):AID1509, AID1523, AID1563, AID1686, AID1701, AID1801, AID463107, AID463225, AID504400]. The class given is functional.

Test [21] addresses Sphingosine 1-phosphate receptor 3 (Homo sapiens, UniProt Q99500). In words: Late-stage fluorescence-based dose-response cell-based assay to identify agonists of the Sphingosine 1-Phosphate Receptor 4 (S1P4): Sphingosine 1-Phosphate Receptor 3 (S1P3) counterscreen assay. [Related pubchem assays (depositor defined):AID1509, AID1523, AID1563, AID1686, AID1701, AID1801, AID463107, AID463225, AID504400]. Type of test: functional.

Test [22] has as its target Sphingosine 1-phosphate receptor 2 (Homo sapiens, UniProt O95136). In words: Late-stage fluorescence-based dose-response cell-based assay to identify agonists of the Sphingosine 1-Phosphate Receptor 4 (S1P4): Sphingosine 1-Phosphate Receptor 2 (S1P2) counterscreen assay. [Related pubchem assays (depositor defined):AID1509, AID1523, AID1563, AID1686, AID1701, AID1801, AID463107, AID463225, AID504400]. The class given is functional.

Test [23] addresses T6, E3 ubiquitin-protein ligase XIAP (Homo sapiens, UniProt P98170). As to the kind of experiment: SAR analysis of Antagonists of XIAP-Bir3 domain of IAP-family anti-apoptotic proteins. [Related pubchem assays (depositor defined):AID1018, AID1449, AID1513, AID1514, AID1638].
In test [24] the target is T6, E3 ubiquitin-protein ligase XIAP. As to the kind of experiment: SAR analysis of Antagonists of IAP-family anti-apoptotic proteins. [Related pubchem assays (depositor defined):AID1018, AID1449, AID1513, AID1514, AID1638].

T4 sequence (Q01196 whole entry, the tested form may be a part): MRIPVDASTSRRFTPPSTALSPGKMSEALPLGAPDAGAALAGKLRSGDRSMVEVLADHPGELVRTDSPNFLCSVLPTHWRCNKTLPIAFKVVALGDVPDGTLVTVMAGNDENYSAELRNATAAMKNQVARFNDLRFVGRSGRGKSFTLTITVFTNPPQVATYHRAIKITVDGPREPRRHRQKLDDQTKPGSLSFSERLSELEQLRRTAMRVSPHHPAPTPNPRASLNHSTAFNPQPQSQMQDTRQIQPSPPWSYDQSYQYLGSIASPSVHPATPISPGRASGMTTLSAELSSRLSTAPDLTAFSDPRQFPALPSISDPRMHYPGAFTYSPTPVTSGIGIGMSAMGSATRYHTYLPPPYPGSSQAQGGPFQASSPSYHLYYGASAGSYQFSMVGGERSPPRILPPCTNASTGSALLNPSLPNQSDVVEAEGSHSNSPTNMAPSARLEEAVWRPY
T4 sequence (Q13951 whole entry, the tested form may be a part): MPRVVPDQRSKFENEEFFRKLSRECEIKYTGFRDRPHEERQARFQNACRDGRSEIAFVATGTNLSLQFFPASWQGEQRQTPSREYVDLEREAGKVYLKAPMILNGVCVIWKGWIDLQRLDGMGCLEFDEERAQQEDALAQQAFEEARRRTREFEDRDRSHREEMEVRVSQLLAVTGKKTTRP
T6 sequence (P98170 whole entry, the tested form may be a part): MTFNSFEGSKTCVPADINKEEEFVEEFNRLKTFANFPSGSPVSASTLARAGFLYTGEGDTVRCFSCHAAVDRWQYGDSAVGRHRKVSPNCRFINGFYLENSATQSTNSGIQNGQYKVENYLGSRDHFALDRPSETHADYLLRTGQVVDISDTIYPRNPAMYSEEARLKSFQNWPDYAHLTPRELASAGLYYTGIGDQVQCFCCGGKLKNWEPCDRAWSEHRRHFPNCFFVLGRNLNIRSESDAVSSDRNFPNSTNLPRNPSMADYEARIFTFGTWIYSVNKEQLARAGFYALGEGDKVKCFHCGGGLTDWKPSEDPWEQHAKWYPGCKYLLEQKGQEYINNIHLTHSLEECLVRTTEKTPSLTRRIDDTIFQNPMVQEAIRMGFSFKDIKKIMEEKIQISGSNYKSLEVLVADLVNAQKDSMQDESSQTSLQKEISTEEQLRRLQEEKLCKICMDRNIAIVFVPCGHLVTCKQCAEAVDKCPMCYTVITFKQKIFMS
T3 sequence (P41145 whole entry): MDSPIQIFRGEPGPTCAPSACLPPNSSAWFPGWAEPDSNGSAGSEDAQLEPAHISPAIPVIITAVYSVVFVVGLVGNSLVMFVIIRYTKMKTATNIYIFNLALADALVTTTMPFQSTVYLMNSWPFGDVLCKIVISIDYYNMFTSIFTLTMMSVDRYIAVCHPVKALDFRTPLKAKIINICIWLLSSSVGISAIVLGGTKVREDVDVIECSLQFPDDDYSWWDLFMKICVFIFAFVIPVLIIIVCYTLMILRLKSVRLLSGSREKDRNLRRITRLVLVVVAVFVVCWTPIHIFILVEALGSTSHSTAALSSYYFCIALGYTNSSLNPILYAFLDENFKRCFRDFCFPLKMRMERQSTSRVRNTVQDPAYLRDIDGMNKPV
Chain of Sphingosine 1-phosphate receptor 3 (Q99500 whole entry): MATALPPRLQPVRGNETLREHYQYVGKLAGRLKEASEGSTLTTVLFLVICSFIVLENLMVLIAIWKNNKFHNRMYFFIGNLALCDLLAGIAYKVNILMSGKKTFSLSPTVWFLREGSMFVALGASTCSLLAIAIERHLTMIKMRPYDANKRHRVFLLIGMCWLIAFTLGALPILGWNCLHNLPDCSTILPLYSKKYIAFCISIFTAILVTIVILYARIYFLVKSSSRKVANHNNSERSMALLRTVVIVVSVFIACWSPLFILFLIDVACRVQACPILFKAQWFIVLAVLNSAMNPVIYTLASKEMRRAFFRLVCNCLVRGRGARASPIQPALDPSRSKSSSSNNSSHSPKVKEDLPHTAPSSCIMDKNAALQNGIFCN
Chain of Peroxisome proliferator-activated receptor gamma (P37231 whole entry): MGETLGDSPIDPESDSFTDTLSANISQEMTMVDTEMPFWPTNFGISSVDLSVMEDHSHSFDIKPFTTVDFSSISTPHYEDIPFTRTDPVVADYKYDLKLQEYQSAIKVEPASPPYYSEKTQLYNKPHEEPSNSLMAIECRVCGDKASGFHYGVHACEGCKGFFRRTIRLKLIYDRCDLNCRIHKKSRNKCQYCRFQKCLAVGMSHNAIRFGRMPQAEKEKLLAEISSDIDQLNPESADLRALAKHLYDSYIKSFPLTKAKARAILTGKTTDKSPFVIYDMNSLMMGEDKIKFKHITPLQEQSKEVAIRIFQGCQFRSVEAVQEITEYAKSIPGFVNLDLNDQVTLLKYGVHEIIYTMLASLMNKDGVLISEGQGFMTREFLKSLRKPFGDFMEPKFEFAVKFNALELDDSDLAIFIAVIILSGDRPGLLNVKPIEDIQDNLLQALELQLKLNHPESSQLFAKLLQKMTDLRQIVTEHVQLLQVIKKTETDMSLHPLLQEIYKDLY
Chain of Sphingosine 1-phosphate receptor 1 (P21453 whole entry): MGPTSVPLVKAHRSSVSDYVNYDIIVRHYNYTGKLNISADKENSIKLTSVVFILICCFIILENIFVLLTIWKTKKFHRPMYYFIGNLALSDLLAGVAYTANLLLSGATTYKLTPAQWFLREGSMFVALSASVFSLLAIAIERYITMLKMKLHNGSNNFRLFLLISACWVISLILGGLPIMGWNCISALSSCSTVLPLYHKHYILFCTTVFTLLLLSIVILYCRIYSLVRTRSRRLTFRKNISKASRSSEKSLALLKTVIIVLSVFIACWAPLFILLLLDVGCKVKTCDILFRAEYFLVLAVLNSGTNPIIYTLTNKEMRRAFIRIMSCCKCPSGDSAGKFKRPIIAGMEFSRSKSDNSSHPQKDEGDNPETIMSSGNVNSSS
Chain of G-protein coupled receptor 55 (Q9Y2T6 whole entry): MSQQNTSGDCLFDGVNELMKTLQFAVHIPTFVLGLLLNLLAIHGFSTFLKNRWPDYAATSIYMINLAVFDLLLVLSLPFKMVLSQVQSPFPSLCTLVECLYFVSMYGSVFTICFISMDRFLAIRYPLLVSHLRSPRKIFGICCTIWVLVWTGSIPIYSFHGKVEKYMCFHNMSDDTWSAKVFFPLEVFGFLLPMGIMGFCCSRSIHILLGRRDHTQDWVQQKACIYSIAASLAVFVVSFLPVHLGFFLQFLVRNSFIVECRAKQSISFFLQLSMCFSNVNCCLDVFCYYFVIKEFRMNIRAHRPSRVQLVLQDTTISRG
Chain of Sphingosine 1-phosphate receptor 5 (Q9H228 whole entry): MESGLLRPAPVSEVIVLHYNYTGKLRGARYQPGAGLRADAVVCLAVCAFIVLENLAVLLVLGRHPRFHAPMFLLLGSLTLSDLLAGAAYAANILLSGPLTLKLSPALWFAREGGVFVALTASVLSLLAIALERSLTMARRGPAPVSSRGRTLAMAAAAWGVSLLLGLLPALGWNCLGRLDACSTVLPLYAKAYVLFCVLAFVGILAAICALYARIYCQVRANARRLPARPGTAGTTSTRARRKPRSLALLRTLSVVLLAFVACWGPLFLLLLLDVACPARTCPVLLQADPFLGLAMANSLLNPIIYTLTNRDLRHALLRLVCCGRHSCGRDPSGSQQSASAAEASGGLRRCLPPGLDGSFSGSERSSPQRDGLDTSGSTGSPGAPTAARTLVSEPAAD
Chain of Tyrosine-protein phosphatase non-receptor type 12 (Q05209 whole entry): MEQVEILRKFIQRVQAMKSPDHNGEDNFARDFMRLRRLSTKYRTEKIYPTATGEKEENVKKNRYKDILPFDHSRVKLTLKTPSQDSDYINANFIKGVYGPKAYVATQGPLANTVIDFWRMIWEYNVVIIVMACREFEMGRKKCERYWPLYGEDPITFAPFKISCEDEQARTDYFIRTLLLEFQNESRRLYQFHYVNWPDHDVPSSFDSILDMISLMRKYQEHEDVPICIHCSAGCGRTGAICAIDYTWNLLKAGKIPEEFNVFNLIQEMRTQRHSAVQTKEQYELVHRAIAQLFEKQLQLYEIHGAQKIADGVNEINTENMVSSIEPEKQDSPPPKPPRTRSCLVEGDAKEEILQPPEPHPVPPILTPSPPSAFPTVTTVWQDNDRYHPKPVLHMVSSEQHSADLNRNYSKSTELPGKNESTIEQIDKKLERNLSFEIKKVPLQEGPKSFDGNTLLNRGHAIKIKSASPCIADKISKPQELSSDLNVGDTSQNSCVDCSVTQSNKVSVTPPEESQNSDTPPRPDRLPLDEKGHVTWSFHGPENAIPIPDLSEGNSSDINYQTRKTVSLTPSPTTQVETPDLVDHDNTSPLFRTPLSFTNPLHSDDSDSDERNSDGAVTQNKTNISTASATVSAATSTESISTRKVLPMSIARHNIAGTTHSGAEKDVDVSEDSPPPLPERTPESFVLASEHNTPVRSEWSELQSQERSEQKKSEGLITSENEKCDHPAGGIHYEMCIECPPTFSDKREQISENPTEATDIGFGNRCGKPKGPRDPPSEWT
Chain of Sphingosine 1-phosphate receptor 2 (O95136 whole entry): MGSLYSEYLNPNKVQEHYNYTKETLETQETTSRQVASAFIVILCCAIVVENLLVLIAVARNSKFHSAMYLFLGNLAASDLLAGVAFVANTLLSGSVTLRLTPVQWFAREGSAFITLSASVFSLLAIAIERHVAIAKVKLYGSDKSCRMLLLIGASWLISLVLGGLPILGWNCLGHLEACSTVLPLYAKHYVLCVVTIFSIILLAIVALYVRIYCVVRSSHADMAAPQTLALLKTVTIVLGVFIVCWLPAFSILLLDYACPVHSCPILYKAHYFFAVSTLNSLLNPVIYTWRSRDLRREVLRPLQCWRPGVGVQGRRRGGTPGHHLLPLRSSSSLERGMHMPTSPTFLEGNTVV

Broadly, the IC50 is the concentration at which inhibition is half-maximal. As to `N#C/C(=C/c1ccc(OCc2cccc(C(=O)O)c2)c(Cl)c1)c1cccc(F)c1`, the IC50 in test [1] is > 100 µM (inactive); in test [2] it was 4.78 µM (active); in test [3] it was > 100 µM (inactive); in test [4], 99.1 µM (active); in test [5] it was > 100 µM (inactive); in [6], 17 µM (active). In addition, the IC50 in test [7] and in test [8] was > 100 µM (inactive) in each case.

`Cc1ccc(N2CCN(CCCNC(=O)Cn3c(=O)c4cccn4c4cc(Br)cnc43)CC2)cc1`: the IC50 is 9.68 µM (active) in [9] and 3.86 µM (active) in test [10].

As usually defined, the EC50 is the concentration that produces a half-maximal response. Broadly, the AC50 is the midpoint of the concentration-response curve, whichever way the signal moves. `O=C1C=CC(=O)N1N(c1ccccc1)c1ccccc1`: the IC50 in test [11] was 16.5 µM (active); in test [12], 21.4 µM (active); in test [15] it was 10.1 µM (active); on Genome polyprotein it was 41.6 µM (active); in test [16], 10.3 µM (active). Also, the concentration giving a half-maximal response (EC50) in [13] was 4.95 µM (active); in test [17], > 32 µM (inactive). Moreover, the AC50 in [14] is 4.16 µM (active).

As for `CN1CCN(S(=O)(=O)c2ccc(Sc3nc4ccccc4[nH]3)c3nsnc23)CC1`, in test [18], the EC50 is 7.6 µM (active).

Take `FCc1ccc(OCCOc2ccc(Cl)cc2Cl)c(Cl)n1`: the EC50 in test [19], in test [20], in test [21] and in test [22] was > 50 µM (inactive) each time.

In the case of `CN[C@@H](C)C(=O)NC1CCCN([C@@H](C)C(=O)Nc2ccc3ccccc3c2)C1=O` (stereo not given in full), the IC50 in test [23] and in test [24] was > 100 µM (inactive) in each case.
